Experimental findings from patent publication US20250162973A1, “METHODS OF SYNTHESIS AND USES OF AGRIMOL COMPOUNDS” (Versitech Limited, priority 2022, published 2025) are described below.

Like-named read-outs stand apart in the source and are kept apart here.

The subject of one series is H460 cell line. Description: MTT cell viability assay. Type of series: cell-based, human. The note with it: MTT method. Here is the method:
(§1) SUNE1 (nasopharyngeal carcinoma), AGS (gastric adenocarcinoma), HeLa (cervix adenocarcinoma), HepG2 (hepatocellular carcinoma), U-87 MG (human glioblastoma cell), U2OS (osteosarcoma), MCF-7 (breast adenocarcinoma), MDA-MB-231 (breast adenocarcinoma), HCT116 (colorectal carcinoma), SW480 (colorectal adenocarcinoma), NCI-H460 (large cell lung carcinoma), NCI-H1650 (adenocarcinoma lung carcinoma), HCC827 (adenocarcinoma lung carcinoma), A549 (lung carcinoma), and CCD-19Lu (human lung fibroblast normal cell) were all obtained from American Type Culture Collection (ATCC, Manassas, VA, USA). Minimum Essential Media (MEM, Gibco®, ThermoFisher Scientific), Dulbecco's Modified Eagle Medium (DMEM, Gibco®, ThermoFisher Scientific), and RPMI-1640 Medium (Gibco®, ThermoFisher Scientific) supplemented with 10% Fetal Bovine Serum (Gibco®, ThermoFisher Scientific), and 100 U/mL penicillin-streptomycin (Gibco™, ThermoFisher Scientific) were used for cell culture. Cells were placed into an incubator with 5% CO2 that temperature was set at 37° C. For subculturing cells, 0.05% Trypsin-EDTA (Gibco®) was used for detaching and a subcultivation ratio of 1:5 was used.
(§2) The cell viability assay was performed by a typical MTT assay. Briefly, 5*10^3 cells were seeded in the 96-well flat bottom plate and allowed to attach overnight. After drug treatment with a serial dilution from 100 μM for 48 h, 10 μL of MTT solution (5 mg/ml prepared in PBS, filtered) was added into each well and incubate for 4 h at 37° C. The formed formazan was then dissolved with SDS solution (10% SDS in 10 mM HCl) and followed the determination of absorbance at 590 nm by a microplate reader. The change in cell viability was then calculated for each drug concentration, then normalized to control. Dose response curves from each assay were fit to a Boltzmann sigmoidal function (GraphPad Prism8, version8.0.0). The cytotoxicity of AGB and its derivatives was determined by the calculation of IC50 value (half maximal inhibitory concentration) from fitted curves, which was the concentration of drug induced 50% cell viability.

In the next series the test system is HeLa cell line. The series can be described thus: MTT cell viability assay. It is filed as cell-based, human. The note with it: MTT method. Here is the method:
as §1, §2

The test system of a further series is A549. Description: MTT cell viability assay. The note with it: Homo sapiens, MTT method, 48h, Table 6. It is filed as cell-based. Here is the method: as §1, §2
Series [1] concerns human cancer cell lines (MDA-MB-231, MCF-7, HepG2, HeLa, AGS, HCT116, SW480, SUNE-1, H460, HCC827, H1650, A549). The series can be described thus: MTT cell viability assay, panel of human cancer cell lines. Type of series: cell-based. The note with it: four different cancer cell lines, 48-h treatment. Here is the method: as §1, §2
The next series relates to AGS cell line. The series can be described thus: MTT cell viability assay. The note with it: MTT method, 48 h. Type of series: cell-based, human. As to the method:
as §1, §2

Another series deals with MDA-MB-231 cell line. The series can be described thus: MTT cell viability assay. To be noted: MTT method, 48 h. Type of series: cell-based, human. As to the method: as §1, §2
Series [2] has as its system Golgi complex in NCI-H460 cells. Description: Golgi integrity, anti-GM130 immunostaining. Type of series: cell-based, human. The text has this: Based on the ProTargetMiner analysis results, the mitochondrial function and ER stress were studied. […] In cells, proteins were initially synthesized in ER and transport to Golgi apparatus for processing. When a drug blocked ER to Golgi trafficking, the Golgi apparatus would suffer from a dramatic redistribution and disruption. This blocking causes accumulation of unmatured proteins in the ER, thereby disrupting the structure of Golgi apparatus and inducing ER stress. The Golgi disrupting agent, brefeldin A (BFA) was used as a positive control drug. […] The effects of BFA and AGB on the integrity of the Golgi complex were assessed by immunostaining using an anti-GM130 antibody, one of Golgi markers.

The mark [3] stands for this setting: Homo sapiens, NCI-H460, 48h, Table 6, read-out: IC50 H460.
Where [4] appears, read: Homo sapiens, HeLa, 48h, Table 6, read-out: IC50 HeLa.
Where [5] appears, read: 48 h, read-out: IC50 H460 cell line.
The mark [6] stands for this setting: 48 h, read-out: IC50 HeLa cell line.

In the case of `CCC(C)C(=O)c1c(O)c(Cc2cc(C)ccc2O)c(O)c(C(=O)OC)c1O` (stereo not drawn), the IC50 with H460 cell line (setting [3]) was determined as 2.99 µM; in the series on HeLa cell line (setting [4]), 3.96 µM; in the series on A549 it was 20.5 µM.
For the compound `CCCC(=O)c1c(O)cc(O)c(C)c1OC` [AGS], the “cytotoxicity compared with AGB” value in series [1] is listed as “significantly lower cytotoxicity than AGB”. Further, the IC50 in the series with AGS cell line (Homo sapiens, AGS) was above 50 µM; with H460 cell line (Homo sapiens, NCI-H460, 48 h, read-out: IC50 H460 cell line), above 50 µM; in the series on MDA-MB-231 cell line (Homo sapiens, MDA-MB-231), above 50 µM; in the series on HeLa cell line (Homo sapiens, HeLa, 48 h, read-out: IC50 HeLa cell line), above 50 µM.
As for `CCCC(=O)c1c(O)c(Cc2c(O)c(C(=O)c3ccccc3)c(O)c(C(=O)c3ccccc3)c2O)c(O)c(C)c1OC`, the IC50 in the series with H460 cell line (setting [3]) is 3.13 µM; in the series with HeLa cell line (setting [4]), 3.24 µM; in the series with A549 it was 28.4 µM.
As for Agrimol L [AGL], the “cytotoxicity compared with AGB” value in series [1] was “significantly lower cytotoxicity than AGB”. Moreover, the IC50 with AGS cell line is above 50 µM; in the series on H460 cell line (setting [5]), above 50 µM; with MDA-MB-231 cell line, above 50 µM; in the series with HeLa cell line (setting [6]), 35.1 µM.
In the case of `CCCC(=O)c1c(O)c(Cc2c(O)c(C)c(O)c(Cc3c(O)c(C)c(OC)c(C(=O)CCC)c3O)c2O)c(O)c(C)c1OC`, the IC50 in the series on H460 cell line (setting [3]) worked out at 3.78 µM.
For `C[C@H]1CCC/C=C/[C@@H]2C[C@H](O)C[C@H]2[C@H](O)/C=C/C(=O)O1` [BFA, brefeldin A], in series [2], the “GM130 distribution (Golgi integrity)” value is given as “redistribution of GM130”.
On to `CCC(C)C(=O)c1c(O)c(Cc2ccccc2O)c(Cl)c(C(=O)OC)c1O` (stereo not drawn), for which, in the series on H460 cell line (setting [3]), the IC50 stood at 2.05 µM.
Same read-out and setting: as for `CCCC(=O)c1c(O)c(Cc2c(O)c(C(=O)OC)c(O)c(C(=O)C(C)C)c2O)c(O)c(C)c1OC`, the figure is 1.14 µM.
Agrimol H [AGH]: the IC50 was determined as 5.43 µM in the series on AGS cell line, 2.66 µM in the series with H460 cell line (setting [5]), 2.84 µM in the series on MDA-MB-231 cell line and 1.55 µM in the series with HeLa cell line (setting [6]).
As to `CCCC(=O)c1c(O)c(Cc2c(O)c(Cc3c(O)c(C)c(OC)c(C(=O)CCC)c3O)c(O)c(C(=O)C3CCCCC3)c2O)c(O)c(C)c1OC`, the IC50 stood at 2.3 µM with H460 cell line (setting [3]) and 1.44 µM in the series on HeLa cell line (setting [4]).
Take `CCCC(=O)c1c(O)c(Cc2c(O)c(Cc3cc(OC)c(OC)c(OC)c3)c(O)c(C(=O)C(C)CC)c2O)c(O)c(C)c1OC` (stereo not drawn): the IC50 came out at 2.3 µM with H460 cell line (setting [3]), 2.06 µM with HeLa cell line (setting [4]) and 8.53 µM in the series on A549.
As for `CCCC(=O)c1c(O)c(Cc2c(O)c(C)c(OC)c(C(=O)CCC)c2O)c(O)c(Cc2c(O)c(C)c(OC)c(C(=O)CCC)c2O)c1O` [AGC, Agrimol C], the IC50 turned out to be 8.01 µM in the series on AGS cell line, 1.76 µM in the series with H460 cell line (setting [5]), 2.44 µM with MDA-MB-231 cell line and 1.52 µM in the series on HeLa cell line (setting [6]).
Turning to `CCC(=O)c1c(O)c(Cc2c(O)c(Cc3c(O)c(C)c(OC)c(C(=O)CC)c3O)c(O)c(C(=O)CCC(O)OC)c2O)c(O)c(C)c1OC` (stereo not drawn), the IC50 with H460 cell line (setting [3]) is 4.67 µM; with HeLa cell line (setting [4]), 3.56 µM; in the series on A549, 41.9 µM.
Taken in the same sequence, the figures for `CCCC(=O)c1c(O)c(Cc2c(O)c(Cc3c(O)c(C)c(OC)c(C(=O)CCC)c3O)c(O)c(C(=O)c3ccccc3)c2O)c(O)c(C)c1OC` were 2.75 µM, 1.23 µM and 19.3 µM.
